{
  "source": "patent US20260285850A1",
  "about": "“SUBSTITUTED OXAZOLIDINONES AND IMIDAZOLINONES AS HERBICIDES” (FMC CORPORATION, priority 2023, published 2026)",
  "format_in_all_cases": "in vivo",
  "key": {"[1]": {"test_system": "barnyardgrass (Echinochloa crus-galli)", "assay": "Test A preemergence soil spray, visual injury rating 0-100", "settings": "10 days", "outline": "(§1)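 Plants in a loam and sand soil blend were treated with each test chemical, in a non-phytotoxic solvent system including surfactant, either sprayed on seeded soil before emergence or applied after emergence at the one- to two-leaf stage. Ten days later in the greenhouse, plants were compared with untreated controls and visually rated from 0 (no effect) to 100 (complete control).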"}, "[2]": {"test_system": "blackgrass (Alopecurus myosuroides)", "assay": "Test A preemergence soil spray, visual injury rating 0-100", "settings": "10 days", "outline": "as §1"}, "corn (Zea mays) [3]": {"test_system": "corn (Zea mays)", "assay": "Test A preemergence soil spray, visual injury rating 0-100", "settings": "10 days", "outline": "as §1"}, "[4]": {"test_system": "green foxtail (Setaria viridis)", "assay": "Test A preemergence soil spray, visual injury rating 0-100", "settings": "10 days", "outline": "as §1"}, "kochia (Bassia scoparia) [5]": {"test_system": "kochia (Bassia scoparia)", "assay": "Test A preemergence soil spray, visual injury rating 0-100", "settings": "10 days", "outline": "as §1"}, "[6]": {"test_system": "oat, wild (wild oat, Avena fatua)", "assay": "Test A preemergence soil spray, visual injury rating 0-100", "settings": "10 days", "outline": "as §1"}, "[7]": {"test_system": "palmer (palmer amaranth, palmer pigweed, Amaranthus palmeri)", "assay": "Test A preemergence soil spray, visual injury rating 0-100", "settings": "10 days", "outline": "as §1"}, "[8]": {"test_system": "ragweed (common ragweed, Ambrosia artemisiifolia)", "assay": "Test A preemergence soil spray, visual injury rating 0-100", "settings": "10 days", "outline": "as §1"}, "[9]": {"test_system": "ryegrass, Italian (italian ryegrass, Lolium multiflorum)", "assay": "Test A preemergence soil spray, visual injury rating 0-100", "settings": "10 days", "outline": "as §1"}, "soybean (Glycine max) [10]": {"test_system": "soybean (Glycine max)", "assay": "Test A preemergence soil spray, visual injury rating 0-100", "settings": "10 days", "outline": "as §1"}, "[11]": {"test_system": "wheat (Triticum aestivum)", "assay": "Test A preemergence soil spray, visual injury rating 0-100", "settings": "10 days", "outline": "as §1"}, "[12]": {"test_system": "barnyardgrass (Echinochloa crus-galli)", "assay": "Test A postemergence application, visual injury rating 0-100", "outline": "as §1"}, "[13]": {"test_system": "blackgrass (Alopecurus myosuroides)", "assay": "Test A postemergence application, visual injury rating 0-100", "outline": "as §1"}, "corn (Zea mays) [14]": {"test_system": "corn (Zea mays)", "assay": "Test A postemergence application, visual injury rating 0-100", "outline": "as §1"}, "[15]": {"test_system": "galium (catchweed bedstraw, Galium aparine)", "assay": "Test A postemergence application, visual injury rating 0-100", "outline": "as §1"}, "[16]": {"test_system": "green foxtail (Setaria viridis)", "assay": "Test A postemergence application, visual injury rating 0-100", "outline": "as §1"}, "[17]": {"test_system": "horseweed (Erigeron canadensis)", "assay": "Test A postemergence application, visual injury rating 0-100", "outline": "as §1"}, "kochia (Bassia scoparia) [18]": {"test_system": "kochia (Bassia scoparia)", "assay": "Test A postemergence application, visual injury rating 0-100", "outline": "as §1"}, "[19]": {"test_system": "oat, wild (wild oat, Avena fatua)", "assay": "Test A postemergence application, visual injury rating 0-100", "outline": "as §1"}, "[20]": {"test_system": "palmer (palmer amaranth, palmer pigweed, Amaranthus palmeri)", "assay": "Test A postemergence application, visual injury rating 0-100", "outline": "as §1"}, "[21]": {"test_system": "ragweed (common ragweed, Ambrosia artemisiifolia)", "assay": "Test A postemergence application, visual injury rating 0-100", "outline": "as §1"}, "[22]": {"test_system": "ryegrass, Italian (italian ryegrass, Lolium multiflorum)", "assay": "Test A postemergence application, visual injury rating 0-100", "outline": "as §1"}, "soybean (Glycine max) [23]": {"test_system": "soybean (Glycine max)", "assay": "Test A postemergence application, visual injury rating 0-100", "outline": "as §1"}, "[24]": {"test_system": "wheat (Triticum aestivum)", "assay": "Test A postemergence application, visual injury rating 0-100", "outline": "as §1"}, "[25]": {"test_system": "barnyardgrass (Echinochloa crusgalli)", "assay": "Test B flooded paddy test, visual plant response rating 0-100", "settings": "250 g ai/ha, Flood, applied to paddy water, evaluated after 13 days", "outline": "(§2)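 Plants were grown to the 2-leaf stage, then pots were flooded to 3 cm above the soil and test compounds were applied directly into the paddy water. Water depth was held there throughout; after 13 days in a greenhouse, injury was scored visually against untreated controls.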"}, "[26]": {"test_system": "ducksalad (Heteranthera limosa)", "assay": "Test B flooded paddy test, visual plant response rating 0-100", "settings": "250 g ai/ha, Flood, applied to paddy water, evaluated after 13 days", "outline": "as §2"}, "rice (Oryza sativa)": {"test_system": "rice (Oryza sativa)", "assay": "Test B flooded paddy test, visual plant response rating 0-100", "settings": "250 g ai/ha, Flood, applied to paddy water, evaluated after 13 days", "outline": "as §2"}, "[27]": {"test_system": "sedge, umbrella (small-flower umbrella sedge, Cyperus difformis)", "assay": "Test B flooded paddy test, visual plant response rating 0-100", "settings": "250 g ai/ha, Flood, applied to paddy water, evaluated after 13 days", "outline": "as §2"}, "[28]": {"settings": "62 g ai/ha, 0 = no effect, 100 = complete control"}, "[29]": {"settings": "62 g ai/ha, postemergence, 10 days, 0 = no effect, 100 = complete control"}, "[30]": {"settings": "Postemergence, 16 g ai/ha, greenhouse 10 days, 0 no effect, 100 complete control"}},
  "data": [
    {"smiles": "CC1(C(=O)NC2CC=C(C(=O)O)C2)CN(c2cc(Cl)cc(Cl)c2)C(=O)O1", "note": "(stereo not shown) [Compound 158]", "values": [
      {"measurement": "Barnyardgrass plant response rating", "setting": "[1]; 16 g ai/ha, 0 to 100 scale", "value": 40},
      {"measurement": "Barnyardgrass plant response rating (0-100)", "setting": "[1]; [28]", "value": 90},
      {"measurement": "Blackgrass plant response rating", "setting": "[2]; 16 g ai/ha, 0 to 100 scale", "value": 0},
      {"measurement": "Blackgrass plant response rating (0-100)", "setting": "[2]; [28]", "value": 50},
      {"measurement": "Corn plant response rating", "setting": "corn (Zea mays) [3]; 16 g ai/ha, 0 to 100 scale", "value": 0},
      {"measurement": "Corn plant response rating (0-100)", "setting": "corn (Zea mays) [3]; [28]", "value": 60},
      {"measurement": "Foxtail, Green plant response rating", "setting": "[4]; 16 g ai/ha, 0 to 100 scale", "value": 0},
      {"measurement": "Foxtail, Green plant response rating (0-100)", "setting": "[4]; [28]", "value": 90},
      {"measurement": "Kochia plant response rating", "setting": "kochia (Bassia scoparia) [5]; 16 g ai/ha, 0 to 100 scale", "value": 30},
      {"measurement": "Kochia plant response rating (0-100)", "setting": "kochia (Bassia scoparia) [5]; [28]", "value": 80},
      {"measurement": "Oat, Wild plant response rating", "setting": "[6]; 16 g ai/ha, 0 to 100 scale", "value": 10},
      {"measurement": "Oat, Wild plant response rating (0-100)", "setting": "[6]; [28]", "value": 30},
      {"measurement": "Pigweed, Palmer plant response rating", "setting": "[7]; 16 g ai/ha, 0 to 100 scale", "value": 50},
      {"measurement": "Pigweed, Palmer plant response rating (0-100)", "setting": "[7]; [28]", "value": 90},
      {"measurement": "Ragweed plant response rating", "setting": "[8]; 16 g ai/ha, 0 to 100 scale", "value": 0},
      {"measurement": "Ragweed plant response rating (0-100)", "setting": "[8]; [28]", "value": 70},
      {"measurement": "Ryegrass, Italian plant response rating", "setting": "[9]; 16 g ai/ha, 0 to 100 scale", "value": 0},
      {"measurement": "Ryegrass, Italian plant response rating (0-100)", "setting": "[9]; [28]", "value": 70},
      {"measurement": "Soybean plant response rating", "setting": "soybean (Glycine max) [10]; 16 g ai/ha, 0 to 100 scale", "value": 0},
      {"measurement": "Soybean plant response rating (0-100)", "setting": "soybean (Glycine max) [10]; [28]", "value": 20},
      {"measurement": "Wheat plant response rating", "setting": "[11]; 16 g ai/ha, 0 to 100 scale", "value": 40},
      {"measurement": "Wheat plant response rating (0-100)", "setting": "[11]; [28]", "value": 80},
      {"measurement": "Barnyardgrass plant response rating (0-100)", "setting": "[12]; [29]", "value": 100},
      {"measurement": "Barnyardgrass plant response rating (0 to 100 scale)", "setting": "[12]; [30]", "value": 90},
      {"measurement": "Blackgrass plant response rating (0-100)", "setting": "[13]; [29]", "value": 100},
      {"measurement": "Blackgrass plant response rating (0 to 100 scale)", "setting": "[13]; [30]", "value": 80},
      {"measurement": "Corn plant response rating (0-100)", "setting": "corn (Zea mays) [14]; [29]", "value": 100},
      {"measurement": "Corn plant response rating (0 to 100 scale)", "setting": "corn (Zea mays) [14]; [30]", "value": 100},
      {"measurement": "Galium plant response rating (0-100)", "setting": "[15]; [29]", "value": 90},
      {"measurement": "Galium plant response rating (0 to 100 scale)", "setting": "[15]; [30]", "value": 90},
      {"measurement": "Foxtail, Green plant response rating (0-100)", "setting": "[16]; [29]", "value": 90},
      {"measurement": "Foxtail, Green plant response rating (0 to 100 scale)", "setting": "[16]; [30]", "value": 90},
      {"measurement": "Horseweed plant response rating (0-100)", "setting": "[17]; [29]", "value": 70},
      {"measurement": "Horseweed plant response rating (0 to 100 scale)", "setting": "[17]; [30]", "value": 30},
      {"measurement": "Kochia plant response rating (0-100)", "setting": "kochia (Bassia scoparia) [18]; [29]", "value": 90},
      {"measurement": "Kochia plant response rating (0 to 100 scale)", "setting": "kochia (Bassia scoparia) [18]; [30]", "value": 80},
      {"measurement": "Oat, Wild plant response rating (0-100)", "setting": "[19]; [29]", "value": 90},
      {"measurement": "Oat, Wild plant response rating (0 to 100 scale)", "setting": "[19]; [30]", "value": 20},
      {"measurement": "Pigweed, Palmer plant response rating (0-100)", "setting": "[20]; [29]", "value": 90},
      {"measurement": "Pigweed, Palmer plant response rating (0 to 100 scale)", "setting": "[20]; [30]", "value": 90},
      {"measurement": "Ragweed plant response rating (0-100)", "setting": "[21]; [29]", "value": 60},
      {"measurement": "Ragweed plant response rating (0 to 100 scale)", "setting": "[21]; [30]", "value": 50},
      {"measurement": "Ryegrass, Italian plant response rating (0-100)", "setting": "[22]; [29]", "value": 80},
      {"measurement": "Ryegrass, Italian plant response rating (0 to 100 scale)", "setting": "[22]; [30]", "value": 80},
      {"measurement": "Soybean plant response rating (0-100)", "setting": "soybean (Glycine max) [23]; [29]", "value": 90},
      {"measurement": "Soybean plant response rating (0 to 100 scale)", "setting": "soybean (Glycine max) [23]; [30]", "value": 60},
      {"measurement": "Wheat plant response rating (0-100)", "setting": "[24]; [29]", "value": 80},
      {"measurement": "Wheat plant response rating (0 to 100 scale)", "setting": "[24]; [30]", "value": 70},
      {"measurement": "Plant response rating, Barnyardgrass (0 to 100 scale, 0 is no effect and 100 is complete control)", "setting": "[25]", "value": 90},
      {"measurement": "Plant response rating, Ducksalad (0 to 100 scale, 0 is no effect and 100 is complete control)", "setting": "[26]", "value": 70},
      {"measurement": "Plant response rating, Rice (0 to 100 scale, 0 is no effect and 100 is complete control)", "setting": "rice (Oryza sativa)", "value": 50},
      {"measurement": "Plant response rating, Sedge, Umbrella (0 to 100 scale, 0 is no effect and 100 is complete control)", "setting": "[27]", "value": 98}
    ]}
  ]
}
